Patent publication US9139532B2, “Pyrazolyl guanidine F1F0-atpase inhibitors and therapeutic uses thereof” (Lycera Corporation, priority 2010, dated 2015)
Where two headings read alike, the source gives them in different places.

What was measured:
F1F0-ATPase = target: T1, F1F0-ATPase (Bos taurus, UniProt P13621); assay: Inhibition of F1F0-ATPase activity in synthesizing ATP; assay type: biochemical; details: inhibition of ATP synthesis by F1F0-ATPase; read-out: ATP Syn IC50
T1 construct: from tissue

Ramos cells = assay: Cytotoxicity in Ramos cells; assay type: cell-based; details: cytotoxicity in Ramos cells, read-out: Ramos Cell EC50

Compound	IC50 (F1F0-ATPase) [µM]	EC50 (Ramos cells) [µM]	EC50 (Ramos cells; Homo sapiens) [µM]
COCC(C)NC(=NC(=O)c1cccc(F)c1)Nc1cc(-c2ccc(F)cc2)n[nH]1 (stereo not drawn) [Compound A-389]	< 10	< 10	
CC(C)(C)N/C(=N/C(=O)c1ccc(C(F)(F)F)cc1)Nc1cc(C(F)F)[nH]n1 [Compound A-53]	< 10		< 10
O=C(N=C(Nc1cc(F)cc(Cl)c1)Nc1cc(-c2ccc(F)cc2)n[nH]1)c1ccc(F)cc1 [Compound A-461]	< 10		< 10
Cc1ccc(-c2cc(NC(=NC(=O)c3ccc(C(F)(F)F)cc3)NC(C)(C)C)[nH]n2)cc1 [Compound A-426]	< 10		> 10
COc1cccc(C(=O)N=C(Nc2cc(-c3ccc(F)cc3)n[nH]2)NC(C)(C)C)c1 [Compound A-540]	< 10		< 10
O=C(/N=C(/NCc1ccc(Cl)c(F)c1)Nc1cc(C(F)(F)F)[nH]n1)c1ccc(C(F)(F)F)cc1 [Compound A-20]	< 10		< 10
O=C(/N=c1\[nH]c2cc(C(F)(F)F)nn2c(=O)n1Cc1ccc(F)cc1Cl)c1ccc(F)c(F)c1 [Compound A-567, (E)-N-(3-(2-chloro-4-fluorobenzyl)-4-oxo-7-(trifluoromethyl)-3,4-dihydropyrazolo[1,5-a][1,3,5]triazin-2(1H)-ylidene)-3,4-difluorobenzamide]	< 10		< 10
Cc1ccc(C(=O)/N=C(\Nc2cc(C(F)(F)F)[nH]n2)NC2CCCC2)cc1 [Compound A-547]	< 10	< 10	
CCC(C)N/C(=N/C(=O)c1ccc(Cl)c(F)c1)Nc1cc(-c2ccc(F)cc2)n[nH]1 (stereo not drawn) [Compound A-219]	< 10	< 10	
Cc1ccc(-c2cc(NC(=NC(=O)c3ccc(C(F)(F)F)cc3)NCc3ccc(F)cc3Cl)[nH]n2)cc1F [Compound A-327]	> 10		> 10
CC(C)NC(=NC(=O)c1cccc(C#N)c1)Nc1cc(-c2ccc(F)cc2)n[nH]1 [Compound A-127]	< 10		> 10
COC[C@H](C)N/C(=N/C(=O)c1cccc(C#N)c1)Nc1cc(-c2ccc(F)cc2)[nH]n1 [Compound A-526]	< 10	> 10	
COC[C@H](C)NC(=NC(=O)c1ccc(F)cc1)Nc1cc(-c2ccc(F)cc2)n[nH]1 [Compound A-533]	< 10		< 10
CC(C)CN/C(=N/C(=O)c1ccc(F)c(F)c1)Nc1[nH]nc(-c2ccc(Cl)cc2)c1F [Compound A-161]	> 10	> 10	
O=C(/N=C(/NCC1CCO1)Nc1cc(-c2ccc(F)cc2)n[nH]1)c1ccc(F)cc1 (stereo not drawn) [Compound A-270]	< 10	> 10	
CC(C)(C)N/C(=N/C(=O)c1ccc(S(N)(=O)=O)cc1)Nc1cc(-c2ccc(F)cc2)n[nH]1 [Compound A-375]	< 10	< 10	
CC(C)(C)N/C(=N/C(=O)c1ccc(Cl)cc1)Nc1cc(C(F)(F)F)[nH]n1 [Compound A-4]	< 10		< 10
CCOCC(C)NC(=NC(=O)c1ccc(F)cc1)Nc1cc(-c2ccc(Cl)cc2)n[nH]1 (stereo not drawn) [Compound A-252]	< 10		< 10
CCC(C)CN/C(=N/C(=O)c1ccc(C(F)(F)F)cc1)Nc1cc(-c2ccc(C)c(F)c2)n[nH]1 (stereo not drawn) [Compound A-330]	> 10	> 10	
COC[C@H](C)N/C(=N/C(=O)c1ccnc(OC)c1)Nc1cc(-c2ccc(F)cc2)n[nH]1 [Compound A-495]	< 10	< 10	
O=C(N=C(Nc1cc(F)cc(Cl)c1)Nc1cc(-c2cccc(Cl)c2)[nH]n1)c1ccc(Cl)c(F)c1 [Compound A-475]	< 10		> 10
O=C(N=C(NCc1ccc(F)cc1Cl)Nc1cc(-c2ccc(F)cc2)n[nH]1)c1cccc(Cl)c1 [Compound A-452]	< 10		< 10
O=C(/N=C(/Nc1cc(F)cc(Cl)c1)Nc1cc(-c2ccccc2)n[nH]1)c1ccc(Cl)c(F)c1 [Compound A-482]	< 10	< 10	
COc1cccc(CNC(=NC(=O)c2ccc(Cl)cc2)Nc2cc(-c3ccc(F)cc3)n[nH]2)c1 [Compound A-400]	< 10		< 10
COc1cccc(C(=O)N=C(Nc2cc(-c3ccc(F)cc3)n[nH]2)NC2CCCC2)c1 [Compound A-519]	< 10		< 10
O=C(/N=C(/NCc1ccc(F)cc1Cl)Nc1cc(-c2cccc(Cl)c2)n[nH]1)c1ccc(Cl)c(F)c1 [Compound A-472]	< 10	> 10	
COCC(C)(C)NC(=NC(=O)c1ccc(F)cc1)Nc1cc(-c2ccc(F)cc2)n[nH]1 [Compound A-505]	< 10		< 10
COc1ccc(-c2cc(N/C(=N\C(=O)c3ccc(C(F)(F)F)cc3)NC(C)(C)C)[nH]n2)cc1F [Compound A-575]	< 10	< 10	
O=C(/N=C(/Nc1cc(F)cc(Cl)c1)Nc1cc(-c2ccc(F)cc2)n[nH]1)c1ccc(Cl)cc1 [Compound A-455]	< 10	< 10	
COCC(C)NC(=NC(=O)c1ccc(C(F)(F)F)cc1)Nc1cc(-c2ccc(Cl)cc2)n[nH]1 (stereo not drawn) [Compound A-238]	< 10		< 10
